Laboratory results from patent publication US8536354B2, “Steroidal ligands and their use in gene switch modulation” (Intrexon Corporation, priority 2008, dated 2013).
pEC50: −log10 of the molar value. Like-named read-outs stand apart in the source and are kept apart here.

Key:
[1] = target: wild-type Drosophila melanogaster EcR (DmEcR; GAL4-EcR DEF with VP16-RXR-USP chimera) (Drosophila melanogaster, UniProt P34021); assay: Two-hybrid gene switch assay, luciferase reporter, wild-type DmEcR, mouse NIH3T3 cells; assay type: cell-based
Chain of wild-type Drosophila melanogaster EcR (DmEcR; GAL4-EcR DEF with VP16-RXR-USP chimera) (P34021 with tags, fused parts or gaps limits assumed): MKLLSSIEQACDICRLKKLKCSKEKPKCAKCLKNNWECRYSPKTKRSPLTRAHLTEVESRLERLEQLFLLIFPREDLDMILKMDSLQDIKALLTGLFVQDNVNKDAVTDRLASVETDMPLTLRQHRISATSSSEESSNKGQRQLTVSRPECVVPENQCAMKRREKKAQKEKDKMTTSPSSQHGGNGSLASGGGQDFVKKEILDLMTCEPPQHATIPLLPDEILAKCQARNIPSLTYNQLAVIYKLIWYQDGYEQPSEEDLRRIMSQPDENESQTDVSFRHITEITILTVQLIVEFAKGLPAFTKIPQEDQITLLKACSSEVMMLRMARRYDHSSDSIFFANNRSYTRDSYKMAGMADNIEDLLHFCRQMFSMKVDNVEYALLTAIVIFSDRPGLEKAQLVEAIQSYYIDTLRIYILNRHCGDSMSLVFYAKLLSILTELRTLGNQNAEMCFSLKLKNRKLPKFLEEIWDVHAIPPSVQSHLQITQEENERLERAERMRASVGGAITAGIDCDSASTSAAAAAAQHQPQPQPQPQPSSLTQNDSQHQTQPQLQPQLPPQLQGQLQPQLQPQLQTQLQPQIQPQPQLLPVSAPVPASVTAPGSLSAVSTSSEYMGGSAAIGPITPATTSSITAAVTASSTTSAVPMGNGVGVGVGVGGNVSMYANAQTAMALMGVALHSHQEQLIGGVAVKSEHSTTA

[2] = target: wild-type Aedes aegypti EcR (AaEcR; GAL4-EcR DEF with VP16-RXR-USP chimera) (Aedes aegypti, UniProt P49880); assay: Two-hybrid gene switch assay, luciferase reporter, wild-type AaEcR, mouse NIH3T3 cells; assay type: cell-based
Chain of wild-type Aedes aegypti EcR (AaEcR; GAL4-EcR DEF with VP16-RXR-USP chimera) (P49880 with tags, fused parts or gaps limits assumed, change not shown): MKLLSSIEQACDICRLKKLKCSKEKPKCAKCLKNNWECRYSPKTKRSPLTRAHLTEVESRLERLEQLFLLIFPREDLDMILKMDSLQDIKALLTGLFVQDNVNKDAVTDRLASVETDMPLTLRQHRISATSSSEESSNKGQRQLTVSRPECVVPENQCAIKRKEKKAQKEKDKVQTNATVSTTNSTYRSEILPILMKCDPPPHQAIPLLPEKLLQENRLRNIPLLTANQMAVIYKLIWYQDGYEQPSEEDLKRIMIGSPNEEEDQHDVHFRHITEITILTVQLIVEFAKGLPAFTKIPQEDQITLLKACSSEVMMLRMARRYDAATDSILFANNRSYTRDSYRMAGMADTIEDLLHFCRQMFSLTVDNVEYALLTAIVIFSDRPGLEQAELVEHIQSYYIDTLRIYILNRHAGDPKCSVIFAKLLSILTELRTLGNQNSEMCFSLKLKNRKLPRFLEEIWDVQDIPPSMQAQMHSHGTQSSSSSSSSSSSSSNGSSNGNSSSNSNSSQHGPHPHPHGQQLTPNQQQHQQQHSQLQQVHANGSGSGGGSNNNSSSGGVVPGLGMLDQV

[3] = target: T1, TmEcR (GAL4-EcR DEF with VP16-RXR partner) (Tenebrio molitor, UniProt O02035); assay: Two-hybrid gene switch assay, luciferase reporter, TmEcR, mouse NIH3T3 cells
T1 sequence (O02035 194-491): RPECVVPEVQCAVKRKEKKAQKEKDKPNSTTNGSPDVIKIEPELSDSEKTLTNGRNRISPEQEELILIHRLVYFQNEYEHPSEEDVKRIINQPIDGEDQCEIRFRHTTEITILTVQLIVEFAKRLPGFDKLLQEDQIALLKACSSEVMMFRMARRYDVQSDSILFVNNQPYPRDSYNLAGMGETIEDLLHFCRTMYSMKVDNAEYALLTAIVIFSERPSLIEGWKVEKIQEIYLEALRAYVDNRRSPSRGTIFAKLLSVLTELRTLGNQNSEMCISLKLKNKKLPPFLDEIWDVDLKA
T1 sequence (P28704 1-520 partner): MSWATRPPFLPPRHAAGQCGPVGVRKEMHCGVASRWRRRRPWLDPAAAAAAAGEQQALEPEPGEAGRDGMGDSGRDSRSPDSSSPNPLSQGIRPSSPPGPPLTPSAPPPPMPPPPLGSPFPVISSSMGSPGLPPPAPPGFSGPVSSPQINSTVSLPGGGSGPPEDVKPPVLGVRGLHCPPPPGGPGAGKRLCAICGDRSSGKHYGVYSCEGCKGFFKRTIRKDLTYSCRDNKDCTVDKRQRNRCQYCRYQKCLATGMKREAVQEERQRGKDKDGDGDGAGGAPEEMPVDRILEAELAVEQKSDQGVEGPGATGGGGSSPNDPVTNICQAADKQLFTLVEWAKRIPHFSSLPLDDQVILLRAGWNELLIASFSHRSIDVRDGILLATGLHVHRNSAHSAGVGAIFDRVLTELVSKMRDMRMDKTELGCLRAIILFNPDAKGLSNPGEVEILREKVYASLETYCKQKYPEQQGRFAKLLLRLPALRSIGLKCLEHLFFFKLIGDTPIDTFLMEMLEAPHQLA

[4] = target: T2, MsEcR (GAL4-EcR DEF with VP16-RXR-USP chimera) (Manduca sexta, UniProt P49883); assay: Two-hybrid gene switch assay, luciferase reporter, MsEcR, mouse NIH3T3 cells
T2 sequence (P49883 1-556): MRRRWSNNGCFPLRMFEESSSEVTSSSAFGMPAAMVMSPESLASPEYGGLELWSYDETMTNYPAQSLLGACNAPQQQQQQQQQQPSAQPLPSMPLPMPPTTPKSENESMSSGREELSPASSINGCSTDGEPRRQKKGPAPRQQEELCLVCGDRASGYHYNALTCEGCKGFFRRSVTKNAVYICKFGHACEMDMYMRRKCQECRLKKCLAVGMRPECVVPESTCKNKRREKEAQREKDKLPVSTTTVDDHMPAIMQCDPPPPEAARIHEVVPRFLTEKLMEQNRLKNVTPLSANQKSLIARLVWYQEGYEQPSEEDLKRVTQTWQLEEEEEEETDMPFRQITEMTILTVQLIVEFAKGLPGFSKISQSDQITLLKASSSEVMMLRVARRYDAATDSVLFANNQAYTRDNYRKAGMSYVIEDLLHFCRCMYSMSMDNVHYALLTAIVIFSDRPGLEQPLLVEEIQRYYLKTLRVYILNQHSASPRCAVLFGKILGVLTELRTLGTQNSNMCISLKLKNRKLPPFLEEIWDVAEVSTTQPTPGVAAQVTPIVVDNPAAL
T2 sequence (P28702 1-533 partner): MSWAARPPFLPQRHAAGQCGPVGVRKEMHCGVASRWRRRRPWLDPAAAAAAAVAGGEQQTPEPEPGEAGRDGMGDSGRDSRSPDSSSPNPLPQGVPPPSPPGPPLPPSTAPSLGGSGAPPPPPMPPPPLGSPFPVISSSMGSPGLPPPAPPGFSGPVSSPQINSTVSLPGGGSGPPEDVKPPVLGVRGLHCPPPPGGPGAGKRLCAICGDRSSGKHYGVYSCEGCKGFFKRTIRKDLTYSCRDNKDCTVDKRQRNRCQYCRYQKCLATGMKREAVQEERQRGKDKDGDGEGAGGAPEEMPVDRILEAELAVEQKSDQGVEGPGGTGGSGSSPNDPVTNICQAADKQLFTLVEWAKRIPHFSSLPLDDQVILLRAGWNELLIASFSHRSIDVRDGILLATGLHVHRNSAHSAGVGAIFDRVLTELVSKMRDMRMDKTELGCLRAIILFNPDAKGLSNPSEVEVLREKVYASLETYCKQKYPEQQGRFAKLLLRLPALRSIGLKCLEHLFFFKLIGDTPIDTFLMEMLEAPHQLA

[5] = tested on: NcEcR (GAL4-EcR DEF with VP16-RXR partner); assay: Two-hybrid gene switch assay, luciferase reporter, NcEcR, mouse NIH3T3 cells
[6] = target: T3, BaEcR (GAL4-EcR DEF with VP16-RXR-USP chimera) (Bemisia tabaci, UniProt A0A6M3RDR8); assay: Two-hybrid gene switch assay, luciferase reporter, BaEcR, mouse NIH3T3 cells
T3 sequence (A0A6M3RDR8 115-530): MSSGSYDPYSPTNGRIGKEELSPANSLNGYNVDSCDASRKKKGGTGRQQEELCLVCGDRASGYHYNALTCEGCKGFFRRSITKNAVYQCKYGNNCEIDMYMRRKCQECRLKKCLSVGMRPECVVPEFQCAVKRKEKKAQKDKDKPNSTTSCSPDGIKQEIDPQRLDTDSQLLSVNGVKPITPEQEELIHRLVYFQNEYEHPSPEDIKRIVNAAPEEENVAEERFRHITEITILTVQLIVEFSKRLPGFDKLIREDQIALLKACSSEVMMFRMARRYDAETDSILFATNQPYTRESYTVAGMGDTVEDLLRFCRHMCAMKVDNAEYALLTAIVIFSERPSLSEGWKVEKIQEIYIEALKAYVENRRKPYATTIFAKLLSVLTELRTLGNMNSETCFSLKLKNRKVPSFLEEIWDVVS
T3 sequence (P28702 1-533 partner): T2 sequence (P28702 1-533 partner)

[7] = target: T4, AmaEcR (GAL4-EcR DEF with VP16-RXR-USP chimera) (Amblyomma americanum, UniProt O44338); assay: Two-hybrid gene switch assay, luciferase reporter, AmaEcR, mouse NIH3T3 cells
T4 sequence (O44338 255-570): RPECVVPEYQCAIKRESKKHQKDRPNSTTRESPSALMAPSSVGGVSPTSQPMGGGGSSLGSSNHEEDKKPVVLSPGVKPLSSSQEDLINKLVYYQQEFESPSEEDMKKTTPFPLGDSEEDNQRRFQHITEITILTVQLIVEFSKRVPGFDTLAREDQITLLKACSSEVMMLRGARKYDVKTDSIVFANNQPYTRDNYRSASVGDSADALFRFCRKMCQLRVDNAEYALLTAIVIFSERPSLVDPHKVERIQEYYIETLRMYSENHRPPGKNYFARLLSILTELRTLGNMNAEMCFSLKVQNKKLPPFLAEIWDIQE
T4 sequence (P28702 1-533 partner): T2 sequence (P28702 1-533 partner)

[8] = target: BmEcR (GAL4-EcR DEF with VP16-RXR-USP chimera) (Bombyx mori, UniProt P49881); assay: Two-hybrid gene switch assay, luciferase reporter, BmEcR, mouse NIH3T3 cells; assay type: cell-based
Chain of BmEcR (GAL4-EcR DEF with VP16-RXR-USP chimera) (P49881 other isoform, or with tags, fused parts or gaps, change not shown): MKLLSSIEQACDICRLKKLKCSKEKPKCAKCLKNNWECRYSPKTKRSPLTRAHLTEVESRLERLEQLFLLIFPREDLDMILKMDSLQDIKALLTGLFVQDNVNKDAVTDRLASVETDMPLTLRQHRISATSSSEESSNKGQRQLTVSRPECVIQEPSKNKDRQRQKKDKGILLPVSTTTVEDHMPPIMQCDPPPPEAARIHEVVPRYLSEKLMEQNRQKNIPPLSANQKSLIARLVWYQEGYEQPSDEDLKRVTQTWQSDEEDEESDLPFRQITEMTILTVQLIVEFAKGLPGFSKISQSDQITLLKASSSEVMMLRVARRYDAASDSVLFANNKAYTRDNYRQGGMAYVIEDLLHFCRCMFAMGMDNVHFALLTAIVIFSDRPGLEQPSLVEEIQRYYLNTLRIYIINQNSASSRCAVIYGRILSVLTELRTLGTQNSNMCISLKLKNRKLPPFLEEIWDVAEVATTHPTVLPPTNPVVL

[9] = target: T5, wild-type CfEcR (GAL4-CfEcR-DEF with VP16-RXR-USP chimera) (Choristoneura fumiferana, UniProt O77255); assay: Two-hybrid gene switch assay, luciferase reporter, wild-type CfEcR, mouse NIH3T3 cells
T5 sequence (O77255 219-541): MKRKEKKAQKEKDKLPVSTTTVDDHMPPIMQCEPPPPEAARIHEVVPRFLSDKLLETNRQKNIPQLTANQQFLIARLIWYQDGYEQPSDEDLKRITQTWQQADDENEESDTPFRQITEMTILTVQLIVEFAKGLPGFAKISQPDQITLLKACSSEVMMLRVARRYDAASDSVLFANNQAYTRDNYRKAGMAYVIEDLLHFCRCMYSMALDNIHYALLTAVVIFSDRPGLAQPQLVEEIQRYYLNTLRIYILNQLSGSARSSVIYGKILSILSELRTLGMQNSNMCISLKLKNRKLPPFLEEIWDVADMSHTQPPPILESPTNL
T5 sequence (P28702 1-533 partner): T2 sequence (P28702 1-533 partner)

[10] = EC50, FIG. 14A/14B, GAL4-EcR(DEF) with VP16-RXR-USP chimera
[11] = EC50, FIG. 16, GAL4-EcR (DEF) / VP16-RXR-USP chimera
[12] = FIG. 14A/14B, GAL4-EcR(DEF) with VP16-RXR-USP chimera, read-out: EC50
[13] = FIG. 16, GAL4-EcR (DEF) / VP16-RXR-USP chimera, read-out: EC50
[14] = EC50, FIG. 14A/14B, GAL4-EcR(DEF)
[15] = EC50, FIG. 13A/13B, GAL4-EcR(DEF) with VP16-RXR-USP chimera

Row | SMILES | pEC50 [1, 10] | pEC50 [2, 12] | pEC50 [2, 13] | pEC50 [3, 14] | pEC50 [4, 15] | pEC50 ([5]; FIG. 14A/14B, GAL4-EcR(DEF)) | pEC50 [6, 10] | pEC50 [6, 11] | pEC50 [7, 10] | pEC50 [7, 11] | also measured
1 | CC(C)(O)CC[C@H]1OC(C)(C)O[C@]1(C)[C@H]1CC[C@@]2(O)C3=CC(=O)[C@@H]4C[C@@H](O)[C@@H](O)C[C@]4(C)[C@H]3CC[C@]12C [20-hydroxyecdysone-20,22-acetonide] | < 4.48 | ~4.92 | 5.62 | < 4.48 | ~4.92 | ~5.00 | < 4.48 | 5.07 | ~4.70 | ~6.00 | pEC50 [1, 11]: ~4.92; pEC50 ([3]; EC50, FIG. 16, GAL4-EcR (DEF)): ~5.52; pEC50 ([4]; EC50, FIG. 15, GAL4-EcR (DEF) / VP16-RXR-USP chimera): ~4.92
2 | CC(C)(O)CC[C@@H](O)[C@](C)(O)[C@H]1CC[C@@]2(O)C3=CC(=O)[C@H]4C[C@@H](O)[C@@H](O)C[C@]4(C)[C@H]3CC[C@]12C [(5a-H)-20-hydroxyecdysone] | – | ~4.70 | – | < 4.48 | < 4.48 | ~4.82 | < 4.48 | – | < 4.48 | – | pEC50 ([8]; FIG. 13A/13B, BmEcR, GAL4-EcR(DEF) with VP16-RXR-USP chimera, read-out: EC50): < 4.48; pEC50 [1, 12]: < 4.48
3 | CC(C)(O)CCC(O)C(C)(O)C1CCC2(O)C3=CC(=O)C4CC(O)CCC4(C)C3CCC12C (stereo not drawn) [Compound 2-deoxy-20-hydroxyecdysone] | < 4.48 | ~5.30 | – | ~4.70 | ~5.00 | – | ~4.82 | – | ~5.30 | – | pEC50 ([8]; read-out: EC50): < 4.48; pEC50 [9]: < 4.48
4 | CC(C)(O)CC[C@@H](O)[C@](C)(O)[C@H]1CC[C@@]2(O)C3=CC(=O)[C@@H]4C[C@@H](O)[C@@H](O)C[C@]4(C)[C@H]3CC[C@]12C [Compound 20-hydroxyecdysone] | – | – | 5.36 | ~4.82 | – | ~6.10 | ~5.30 | 5.27 | – | ~6.10 | pEC50 [1, 13]: ~4.82; pEC50 ([5]; FIG. 16, GAL4-EcR (DEF)): 6.22
5 | CC(C)CC[C@@H](O)[C@](C)(O)[C@H]1CC[C@@]2(O)C3=CC(=O)[C@]4(O)C[C@@H](O)[C@@H](O)C[C@]4(C)[C@H]3[C@H](O)C[C@]12C [Mur A, muristerone A, reference compound] | 7.24 | – | – | ~5.30 | 6.18 | – | 6.08 | – | 6.89 | – | pEC50 ([8]; EC50, FIG. 13A/13B, BmEcR, GAL4-EcR(DEF) with VP16-RXR-USP chimera): 5.53; pEC50 ([1]; EC50, FIG. 4C): 6.95; pEC50 [2, 10]: 7.64
